According to US20210300924A1, “5-[6-[[3-(4,5,6,7-TETRAHYDROPYRAZOLO[4,3-C]PYRIDIN-1-YL)AZETIDIN-1-YL]METHYL]MORPHOLIN-4-YL]QUINOLINE-8-CARBONITRILE DERIVATIVES AND SIMILAR COMPOUNDS AS TLR7-9 ANTAGONISTS FOR TREATING SYSTEMIC LUPUS ERYTHEMATOSUS” (Hoffmann-La Roche Inc., priority 2018, published 2021):

Tests used:
[1] = target: T1, human TLR7 (Homo sapiens, UniProt Q9NYK1); test: HEK293-Blue-hTLR-7 cells assay; format: cell-based; conditions: HEK293-Blue-hTLR7 cells, R848 stimulation, 20 hrs, SEAP reporter; read-out: HEK/hTLR7 IC50
T1 construct: host or cells: HEK293 (HEK-Blue hTLR7)
T1 sequence (Q9NYK1 27-1049): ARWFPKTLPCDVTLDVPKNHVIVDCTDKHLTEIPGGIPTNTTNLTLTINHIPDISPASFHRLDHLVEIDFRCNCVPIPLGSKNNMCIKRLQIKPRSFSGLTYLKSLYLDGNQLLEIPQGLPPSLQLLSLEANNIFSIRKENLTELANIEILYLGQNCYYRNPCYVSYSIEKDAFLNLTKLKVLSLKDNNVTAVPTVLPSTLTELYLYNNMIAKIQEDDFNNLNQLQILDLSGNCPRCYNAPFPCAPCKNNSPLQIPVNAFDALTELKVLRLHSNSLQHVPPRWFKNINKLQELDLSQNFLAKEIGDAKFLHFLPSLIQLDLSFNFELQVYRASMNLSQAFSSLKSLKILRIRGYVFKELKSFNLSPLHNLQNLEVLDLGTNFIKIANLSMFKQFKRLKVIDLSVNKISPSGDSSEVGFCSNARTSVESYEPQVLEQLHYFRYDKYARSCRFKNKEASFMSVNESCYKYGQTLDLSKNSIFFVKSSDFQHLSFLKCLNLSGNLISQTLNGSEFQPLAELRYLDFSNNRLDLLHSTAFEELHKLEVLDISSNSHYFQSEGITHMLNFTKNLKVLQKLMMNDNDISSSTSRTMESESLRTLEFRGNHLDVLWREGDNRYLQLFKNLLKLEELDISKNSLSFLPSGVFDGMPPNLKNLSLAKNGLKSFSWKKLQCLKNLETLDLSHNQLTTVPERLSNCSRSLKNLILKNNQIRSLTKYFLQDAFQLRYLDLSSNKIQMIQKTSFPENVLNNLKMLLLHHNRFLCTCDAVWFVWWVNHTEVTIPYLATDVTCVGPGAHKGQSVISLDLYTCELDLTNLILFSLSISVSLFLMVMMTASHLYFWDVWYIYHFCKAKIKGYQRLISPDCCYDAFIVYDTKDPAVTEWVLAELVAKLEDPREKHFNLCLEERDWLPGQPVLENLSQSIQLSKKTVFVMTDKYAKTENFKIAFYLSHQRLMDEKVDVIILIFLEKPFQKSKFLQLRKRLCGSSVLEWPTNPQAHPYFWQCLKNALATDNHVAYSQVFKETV
From the text: HEK293-Blue-hTLR-7 cells assay:
A stable HEK293-Blue-hTLR-7 cell line was purchased from InvivoGen (Cat. #: hkb-htlr7, San Diego, Calif., USA). These cells were originally designed for studying the stimulation of human TLR7 by monitoring the activation of NF-κB. A SEAP (secreted embryonic alkaline phosphatase) reporter gene was placed under the control of the IFN-β minimal promoter fused to five NF-κB and AP-1-binding sites. The SEAP was induced by activating NF-κB and AP-1 via stimulating HEK-Blue hTLR7 cells with TLR7 ligands. Therefore the reporter expression was declined by TLR7 antagonist under the stimulation of a ligand, such as R848 (Resiquimod), for incubation of 20 hrs. The cell culture supernatant SEAP reporter activity was determined using QUANTI-Blue™ kit (Cat. #: rep-qb1, Invivogen, San Diego, Ca, USA) at a wavelength of 640 nm, a detection medium that turns purple or blue in the presence of alkaline phosphatase.
HEK293-Blue-hTLR7 cells were incubated at a density of 250,000-450,000 cells/mL in a volume of 170 μL in a 96-well plate in Dulbecco's Modified Eagle's medium (DMEM) containing 4.5 g/L glucose, 50 U/mL penicillin, […], […], 2 mM L-glutamine, 10% (v/v) heat-inactivated fetal bovine serum with addition of 20 μL test compound in a serial dilution in the presence of final DMSO at 1% and 10 μL of 20 uM R848 in above DMEM, perform incubation under 37° C. in a CO2 incubator for 20 hrs. Then 20 μL of the supernatant from each well was incubated with 180 μL Quanti-blue substrate solution at 37° C. for 2 hrs and the absorbance was read at 620˜655 nm using a spectrophotometer. The signaling pathway that TLR7 activation leads to downstream NF-κB activation has been widely accepted, and therefore similar reporter assay was modified for evaluating TLR7 antagonist.

[2] = target: T2, CYP2D6 (Homo sapiens, UniProt P10635); test: CYP inhibition assay in human liver microsome; format: in vitro ADME; conditions: human liver microsomes, probe dextromethorphan, dextromethorphan substrate, percentage inhibition <0: not or weak inhibitor, read-out: CYP 2D6 inhibition % @ 10 μM
T2 construct: tissue BD-Gentest 452117; host or cells: human liver microsomes
T2 sequence (P10635 whole entry): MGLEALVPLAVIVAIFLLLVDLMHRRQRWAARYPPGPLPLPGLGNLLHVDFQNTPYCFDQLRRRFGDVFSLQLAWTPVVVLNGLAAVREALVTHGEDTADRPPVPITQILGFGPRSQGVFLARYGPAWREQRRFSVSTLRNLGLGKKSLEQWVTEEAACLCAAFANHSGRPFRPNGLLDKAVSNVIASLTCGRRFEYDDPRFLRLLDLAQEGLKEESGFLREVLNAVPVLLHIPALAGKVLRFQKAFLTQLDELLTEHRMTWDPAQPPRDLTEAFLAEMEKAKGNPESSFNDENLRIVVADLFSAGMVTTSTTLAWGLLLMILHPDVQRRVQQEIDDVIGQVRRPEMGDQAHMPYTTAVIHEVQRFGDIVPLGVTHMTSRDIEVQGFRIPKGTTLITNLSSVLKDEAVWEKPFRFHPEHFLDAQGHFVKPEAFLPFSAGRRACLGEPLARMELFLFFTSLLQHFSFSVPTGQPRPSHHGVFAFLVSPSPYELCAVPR
Protocol: This is a high throughput screening assay used for assessment of reversible inhibition of CYP2D6 activity of test compounds in human liver microsome (HLM) in early discovery stage.
10 mM DMSO stock solutions of test compounds were diluted in DMSO to generate 2 mM intermediate stock solution. 250 nL of intermediate stock solution were transferred in duplicate into 3 separate 384 well microtitre plates (assay-ready plates). A mixture of HLM and each substrate was made up. 45 μL of HLM substrate mix was then transferred to each well of an assay ready plate and mixed. The negative (solvent) and positive control (standard inhibitor for CYP 2D6) were included in each assay ready plate. The assay ready plate was warmed to 37° C. in an incubator over 10 minutes. 5 μL pre-warmed NADPH regenerating system was added to each incubation well to start the reaction. Final incubation volume was 50 μL. The assay plate then was placed back in the 37° C. incubator. After 10 minutes incubation, incubates were quenched by addition of 50 μL 100% acetonitrile containing internal standards (20 ng/mL D3-Dextrorphan). The supernatants were collected for RapidFire/MS/MS analysis.
RapidFire online solid phase extraction/sample injection system (Agilent) coupled with API4000 triple quadrupole mass spectrometer (AB Sciex) were used for sample analysis. The mobile phase composed of acetonitrile and water supplemented with 0.1% formic acid. A C4 solid phase extraction cartridge is used for sample separation. MS detection is achieved in positive ion MRM mode.
Peak areas for substrate, metabolite and internal standard are determined using the RapidFire integrator software (version 3.6.12009.12296). Peak area ratios (PAR) of metabolite and internal standard (stable-labelled metabolite) are then calculated. The measurement window for each experiment is then defined:
PAR (0% activity)=average PAR for all incubations containing concentrated inhibitor;
Par (100% activity)=average PAR for all incubations containing no inhibitor (DMSO controls);
% Activity (test inhibitor)=
[PAR(test inhibitor)−PAR(0% activity)]/[PAR(100% activity)−PAR(0% activity)]; % Inhibition (test inhibitor)=100−% Activity (test inhibitor).

Row | SMILES | IC50 [1] [nM] | inhibition at 10 min, 10 µM [2] [%]
1 | C[C@@H]1CN(c2ccc(C#N)c3ncccc23)C[C@H](CN2CC(n3ncc4c3CNCC4)C2)O1 [Example 3, 5-[(2R,6S)-2-methyl-6-[[3-(4,5,6,7-tetrahydropyrazolo[3,4-c]pyridin-1-yl)azetidin-1-yl]methyl]morpholin-4-yl]quinoline-8-carbonitrile] | 3 | 10.5
2 | CCN1CCc2cn(C3CN(C[C@H]4CN(c5ccc(C#N)c6ncccc56)C[C@@H](C)O4)C3)nc2C1 [Example 7, 5-[(2S,6R)-2-[[3-(6-ethyl-5,7-dihydro-4H-pyrazolo[3,4-c]pyridin-2-yl)azetidin-1-yl]methyl]-6-methyl-morpholin-4-yl]quinoline-8-carbonitrile] | 8 | -19.5
3 | C[C@@H]1CN(c2ccc(C#N)c3ncccc23)C[C@H](CN2CC(n3cc4c(n3)CN[C@@H](C)C4)C2)O1 (single isomer, unassigned) [Example 29] | 8 | –
4 | C[C@@H]1CN(c2ccc(C#N)c3ncccc23)C[C@H](CN2CC(n3cc4c(n3)C[C@H](C)NC4)C2)O1 [Example 19, 5-[(2R,6S)-2-methyl-6-[[3-[(6S)-6-methyl-4,5,6,7-tetrahydropyrazolo[4,3-c]pyridin-2-yl]azetidin-1-yl]methyl]morpholin-4-yl]quinoline-8-carbonitrile] | 19 | -2.5
5 | Cc1nn(C2CN(C[C@H]3CN(c4ccc(C#N)c5ncccc45)C[C@@H](C)O3)C2)c2c1CNCC2 [Example 12, 5-[(2R,6S)-2-methyl-6-[[3-(3-methyl-4,5,6,7-tetrahydropyrazolo[4,3-c]pyridin-1-yl)azetidin-1-yl]methyl]morpholin-4-yl]quinoline-8-carbonitrile] | 15 | 6
6 | C[C@@H]1CN(c2ccc(C#N)c3ncccc23)C[C@H](CN2CC(n3cc4c(n3)CCNC4)C2)O1 [Example 2, 5-[(2R,6S)-2-methyl-6-[[3-(4,5,6,7-tetrahydropyrazolo[4,3-c]pyridin-2-yl)azetidin-1-yl]methyl]morpholin-4-yl]quinoline-8-carbonitrile] | 25 | 1
7 | C[C@@H]1CN(c2ccc(C#N)c3ncccc23)C[C@H](CN2CC(n3ncc4c3CNC4)C2)O1 [Example 10, 5-[(2S,6R)-2-[[3-(5,6-dihydro-4H-pyrrolo[3,4-c]pyrazol-1-yl)azetidin-1-yl]methyl]-6-methyl-morpholin-4-yl]quinoline-8-carbonitrile] | 16 | –
8 | C[C@@H]1CN(c2ccc(C#N)c3ncccc23)C[C@H](CN2CC(n3cc4c(n3)CCN[C@@H]4C)C2)O1 [Example 21, 5-[(2R,6S)-2-methyl-6-[[3-[(4R)-4-methyl-4,5,6,7-tetrahydropyrazolo[4,3-c]pyridin-2-yl]azetidin-1-yl]methyl]morpholin-4-yl]quinoline-8-carbonitrile] | 18 | 10.5
9 | Cc1c2c(nn1C1CN(C[C@H]3CN(c4ccc(C#N)c5ncccc45)C[C@@H](C)O3)C1)CNCC2 [Example 43, 5-[(2R,6S)-2-methyl-6-[[3-(3-methyl-4,5,6,7-tetrahydropyrazolo[3,4-c]pyridin-2-yl)azetidin-1-yl]methyl]morpholin-4-yl]quinoline-8-carbonitrile] | 17 | –
10 | C[C@@H]1CN(c2ccc(C#N)c3ncccc23)C[C@H](CN2CC(n3cc4c(n3)CNCC4)C2)O1 [Example 4, 5-[(2R,6S)-2-methyl-6-[[3-(4,5,6,7-tetrahydropyrazolo[3,4-c]pyridin-2-yl)azetidin-1-yl]methyl]morpholin-4-yl]quinoline-8-carbonitrile] | 9 | 7.5
11 | C[C@@H]1CN(c2ccc(C#N)c3ncccc23)C[C@H](CN2CC(n3ncc4c3CN[C@@H](C)C4)C2)O1 (single isomer, unassigned) [Example 27] | 6 | 22
12 | Cc1nn(C2CN(C[C@H]3CN(c4ccc(C#N)c5ncccc45)C[C@@H](C)O3)C2)c2c1CN(C)CC2 [Example 14, 5-[(2S,6R)-2-[[3-(3,5-dimethyl-6,7-dihydro-4H-pyrazolo[4,3-c]pyridin-1-yl)azetidin-1-yl]methyl]-6-methyl-morpholin-4-yl]quinoline-8-carbonitrile] | 26 | –
13 | C[C@@H]1CN(c2ccc(C#N)c3ncccc23)C[C@H](CN2CC(n3cc4c(n3)[C@@H](C)NCC4)C2)O1 (single isomer, unassigned) [Example 33] | 7 | –
14 | C[C@@H]1CN(c2ccc(C#N)c3ncccc23)C[C@H](CN2CCC(n3ncc4c3CCNC4)CC2)O1 [Example 35, 5-[(2R,6S)-2-methyl-6-[[4-(4,5,6,7-tetrahydropyrazolo[4,3-c]pyridin-1-yl)-1-piperidyl]methyl]morpholin-4-yl]quinoline-8-carbonitrile] | 5 | –
15 | C[C@@H]1CN(c2ccc(C#N)c3ncccc23)C[C@H](CN2CC(n3cc4c(n3)[C@H](C)CNC4)C2)O1 (single isomer, unassigned) [Example 25] | 4 | –
16 | C[C@@H]1CN(c2ccc(C#N)c3ncccc23)C[C@H](CN2CC(n3cc4c(n3)C(C)(C)CNC4)C2)O1 [Example 24, 5-[(2S,6R)-2-[[3-(7,7-dimethyl-5,6-dihydro-4H-pyrazolo[4,3-c]pyridin-2-yl)azetidin-1-yl]methyl]-6-methyl-morpholin-4-yl]quinoline-8-carbonitrile] | 4 | –
17 | C[C@@H]1CN(c2ccc(C#N)c3ncccc23)C[C@H](CN2CC(n3ncc4c3CCNC4)C2)O1 [Example 1, 5-[(2R,6S)-2-methyl-6-[[3-(4,5,6,7-tetrahydropyrazolo[4,3-c]pyridin-1-yl)azetidin-1-yl]methyl]morpholin-4-yl]quinoline-8-carbonitrile] | 10 | –
